The values that follow come from ChEMBL document CHEMBL5046218, “Novel Dual-Target μ-Opioid Receptor and Dopamine D3 Receptor Ligands as Potential Nonaddictive Pharmacotherapeutics for Pain Management” (J Med Chem, 2021).

Assay [1] has as its target Mu-type opioid receptor (Homo sapiens) (UniProt P35372). Particulars: HEK293T, time 10.0 min.
For assay [2], the target named is T1, D(2) dopamine receptor (Homo sapiens, UniProt P14416). Nature of the assay: Displacement of [3H]-N-methylspiperone from human dopamine D2 receptor expressed in HEK293 cell membranes incubated for 60 mins by microbeta scintillation counting analysis. Also noted: species or system Membrane. A general note: Loss of bound radioactivity is the signal in a displacement assay; it reports binding, not function.
T1 sequence (P14416 whole entry): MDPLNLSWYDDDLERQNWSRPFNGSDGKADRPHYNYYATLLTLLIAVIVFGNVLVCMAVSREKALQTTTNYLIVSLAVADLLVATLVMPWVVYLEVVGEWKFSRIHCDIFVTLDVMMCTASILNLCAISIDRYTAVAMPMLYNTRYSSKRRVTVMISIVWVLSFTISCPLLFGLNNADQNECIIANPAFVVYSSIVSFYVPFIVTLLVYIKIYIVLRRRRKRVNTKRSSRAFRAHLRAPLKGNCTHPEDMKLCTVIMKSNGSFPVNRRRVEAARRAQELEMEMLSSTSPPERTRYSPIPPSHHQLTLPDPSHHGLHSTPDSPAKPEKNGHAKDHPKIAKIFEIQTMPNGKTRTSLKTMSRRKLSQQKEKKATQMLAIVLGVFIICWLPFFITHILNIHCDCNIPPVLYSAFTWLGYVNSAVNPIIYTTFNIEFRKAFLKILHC

Another assay deals with T2, D(4) dopamine receptor (Homo sapiens, UniProt P21917).
T2 sequence (P21917 whole entry): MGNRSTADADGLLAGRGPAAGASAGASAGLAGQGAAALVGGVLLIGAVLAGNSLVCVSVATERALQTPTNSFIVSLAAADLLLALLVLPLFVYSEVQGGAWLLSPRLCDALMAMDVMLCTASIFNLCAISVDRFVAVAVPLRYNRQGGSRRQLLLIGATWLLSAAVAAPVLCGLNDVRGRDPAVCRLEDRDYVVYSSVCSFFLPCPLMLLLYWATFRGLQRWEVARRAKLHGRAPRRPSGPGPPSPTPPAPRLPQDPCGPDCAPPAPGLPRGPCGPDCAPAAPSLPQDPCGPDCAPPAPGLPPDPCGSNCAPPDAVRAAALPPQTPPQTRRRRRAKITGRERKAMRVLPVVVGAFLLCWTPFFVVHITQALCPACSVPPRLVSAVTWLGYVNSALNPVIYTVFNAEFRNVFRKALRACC
Nature of the assay: Displacement of [3H]-N-methylspiperone from human dopamine D4 receptor expressed in HEK293 cell membranes incubated for 60 mins by microbeta scintillation counting analysis. Also noted: species or system Membrane.

In assay [3] the target is T3, D(3) dopamine receptor (Homo sapiens, UniProt P35462). Conditions: HEK293T, time 10.0 min.
T3 sequence (P35462 whole entry): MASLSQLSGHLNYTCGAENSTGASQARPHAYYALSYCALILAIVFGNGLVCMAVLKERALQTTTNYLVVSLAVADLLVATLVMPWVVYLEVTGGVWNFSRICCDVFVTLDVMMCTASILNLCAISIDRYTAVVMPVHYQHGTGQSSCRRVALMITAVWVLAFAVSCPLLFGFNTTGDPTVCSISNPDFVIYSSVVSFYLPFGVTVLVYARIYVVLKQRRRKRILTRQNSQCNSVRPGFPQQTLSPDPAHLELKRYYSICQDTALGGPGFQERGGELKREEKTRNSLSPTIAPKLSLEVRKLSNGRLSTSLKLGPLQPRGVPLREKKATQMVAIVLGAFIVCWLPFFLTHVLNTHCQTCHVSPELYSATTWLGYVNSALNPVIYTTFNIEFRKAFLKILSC
The target in assay [4] is T3, D(3) dopamine receptor. In words: Antagonist activity at human […] expressed in HEK293T cells assessed as GalphaoA activation preincubated with compound in D-PBS for 3 hrs followed by coelenterazine addition for 5 mins once again compound addition for 10 mins by BRET assay. Format: functional, cell-based.
Assay [5] deals with Mu-type opioid receptor (Homo sapiens) (UniProt P35372). Conditions: HEK293T, time 10.0 min. This is another data set of the same source.
Mu-type opioid receptor (Homo sapiens), sequence (P35372 whole entry): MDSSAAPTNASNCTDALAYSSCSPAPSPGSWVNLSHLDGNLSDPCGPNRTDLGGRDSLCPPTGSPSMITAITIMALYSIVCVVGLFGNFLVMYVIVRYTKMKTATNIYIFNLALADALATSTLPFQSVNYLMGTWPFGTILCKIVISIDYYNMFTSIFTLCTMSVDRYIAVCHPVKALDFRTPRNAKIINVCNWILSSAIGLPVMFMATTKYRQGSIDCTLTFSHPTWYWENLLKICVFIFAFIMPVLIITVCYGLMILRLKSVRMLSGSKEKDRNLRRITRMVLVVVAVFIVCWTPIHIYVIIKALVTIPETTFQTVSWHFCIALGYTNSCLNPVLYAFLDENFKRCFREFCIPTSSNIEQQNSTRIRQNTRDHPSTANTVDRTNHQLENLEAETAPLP
For assay [6], the target named is T3, D(3) dopamine receptor. Nature of the assay: Displacement of [3H]-N-methylspiperone from human dopamine D3 receptor expressed in HEK293 cell membranes incubated for 60 mins by microbeta scintillation counting analysis. On the set-up: species or system Membrane.
The target in assay [7] is Mu-type opioid receptor (Homo sapiens) (UniProt P35372). Particulars: HEK293T, time 10.0 min. This is another data set of the same source.
The target of assay [8] is T1, D(2) dopamine receptor. Nature of the assay: Displacement of [3H]-(R)-(+)7-OH-DPAT from human dopamine D2 receptor expressed in HEK293 cell membranes incubated for 90 mins by microbeta scintillation counting analysis. On the set-up: species or system Membrane.
Assay [9] has as its target T3, D(3) dopamine receptor. In words: Displacement of [3H]-(R)-(+)7-OH-DPAT from human dopamine D3 receptor expressed in HEK293 cell membranes incubated for 90 mins by microbeta scintillation counting analysis. On the set-up: species or system Membrane.
In assay [10] the target is T3, D(3) dopamine receptor. In words: Agonist activity at human dopamine D3 receptor expressed in HEK293T cells assessed as GalphaoA activation preincubated for 5 mins with coelenterazine followed by compound addition and measured after 10 mins by BRET assay. The format is functional, cell-based. In general terms: Bioluminescence resonance energy transfer reports proximity on the nanometre scale.

Calls of active or inactive are those of the source. No cut-off for these calls is given here. Bounds are passed on as bounds.

In the case of `CCOC(=O)/C=C1\[C@@H]2CCC[C@@]1(c1cccc(O)c1)CCN2CCCCNC(=O)c1cc2ccccc2[nH]1`, the pEC50 entry (in assay [1]; on D(3) dopamine receptor [3]; in assay [5]; in [7]) was “inactive” throughout. In addition, the inhibitory constant (Ki) turned out to be 2950 nM on D(2) dopamine receptor [2], 13800 nM at D(4) dopamine receptor and 13700 nM at D(3) dopamine receptor [6]. Also, the pIC50 at D(3) dopamine receptor [4] is more than 5.

For `CCc1cccc(N2CCN(CC(O)CCNCCC(C(=O)N(C)C)(c3ccccc3)c3ccccc3)CC2)c1Cl` (stereo unspecified), the inhibitory constant (Ki) on D(2) dopamine receptor [2] is 457 nM; on D(4) dopamine receptor it was 1260 nM; on D(2) dopamine receptor [8], 114 nM; at D(3) dopamine receptor [6], 123 nM; at D(3) dopamine receptor [9], 123 nM.

Consider `Oc1cccc([C@]23CCC[C@H](NCC2)[C@H]3O)c1`, for which the Ki at D(2) dopamine receptor [2], on D(4) dopamine receptor, on D(2) dopamine receptor [8], on D(3) dopamine receptor [6] and on D(3) dopamine receptor [9] was more than 100000 nM throughout.

On to `CN(C)C(=O)C(CCNCCC(O)CN1CCN(c2cccc(Cl)c2Cl)CC1)(c1ccccc1)c1ccccc1` (stereo unspecified), for which the Ki on D(2) dopamine receptor [2] stood at 700 nM; at D(4) dopamine receptor it was 2780 nM; at D(2) dopamine receptor [8], 167 nM; at D(3) dopamine receptor [6], 572 nM; at D(3) dopamine receptor [9], 209 nM.

With `CCOC(=O)/C=C1\[C@@H]2CCC[C@@]1(c1cccc(O)c1)CCN2C[C@@H]1C[C@H]1CCNC(=O)c1cc2ccccc2[nH]1` (relative stereo), the pEC50 entry in [1], in [5] and in assay [7] was “inactive” throughout. For the same molecule, the Ki on D(2) dopamine receptor [2] came to 4860 nM; at D(4) dopamine receptor it was 17600 nM; at D(3) dopamine receptor [6], 2300 nM.

Consider `CCc1cccc(N2CCN(CCCCNCCC(C(=O)N(C)C)(c3ccccc3)c3ccccc3)CC2)c1Cl`, for which the inhibition constant Ki came to 62.1 nM on D(2) dopamine receptor [2]; 503 nM at D(4) dopamine receptor; 44.2 nM on D(2) dopamine receptor [8]; 17.8 nM on D(3) dopamine receptor [6]; 38.3 nM at D(3) dopamine receptor [9].

Turning to `CCOC(=O)/C=C1\[C@@H]2CCC[C@@]1(c1cccc(O)c1)CCN2C[C@H]1C[C@@H]1CCNC(=O)c1cc2ccccc2[nH]1` (relative stereo), the pEC50 entry in assay [1], in assay [5] and in [7] was “inactive” throughout. In addition, the Ki on D(2) dopamine receptor [2] turned out to be 2860 nM; at D(4) dopamine receptor, 29200 nM; at D(3) dopamine receptor [6], 1290 nM. Besides, the concentration giving a half-maximal response (EC50) at D(3) dopamine receptor [10] is 1480 nM.

Broadly, the Ki is a dissociation constant, usually derived from enzyme kinetics or from competition with a known ligand. Read a high Ki as a looser hold on the target. By pIC50 is commonly meant the IC50 on a negative log10 scale, so that one unit is a factor of ten. As a reminder, the EC50 is the concentration at which the effect is half-maximal.
